Where two headings read alike, the source gives them in different places.
Legend:
C. acutatum = test: 96-well microtiter plate assay, fungal growth inhibition; format: cell-based, Colletotrichum acutatum; conditions: Colletotrichum acutatum, C. acutatum, read-out: Percent inhibition−Percent Stimulation±SEM
C. gloeosporioides = test: as above; format: cell-based, Colletotrichum gloeosporioides; conditions: Colletotrichum gloeosporioides, C. gloeosporioides, read-out: Percent inhibition−Percent Stimulation±SEM
F. oxysporum = test: as above; format: cell-based, Fusarium oxysporum; conditions: Fusarium oxysporum, F. oxysporum, read-out: Percent inhibition−Percent Stimulation±SEM
Summary of the method: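 Conidia harvested from 7-10 day-old plates, adjusted to 1.0×10^6 conidia/mL; dosed at 0.3/3.0/30.0 μM final, duplicates; 24±1° C., 12 h photoperiod; A620 read at […] + 72 h; broth+inoculum positive, solvent+broth negative controls.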

C. fragariae = test: as above; format: cell-based, Colletotrichum fragariae; conditions: Colletotrichum fragariae, C. fragariae, read-out: Percent inhibition−Percent Stimulation±SEM
B. cinerea = test: as above; format: cell-based, Botrytis cinerea; conditions: Botrytis cinerea, B. cinerea, read-out: Percent inhibition−Percent Stimulation±SEM
[1] = test system: C. fragariae isolate CF-75; test: Detached strawberry leaf assay; format: in vivo, Colletotrichum fragariae; conditions: detached strawberry leaves (cultivar Chandler), five days after application
Excerpt: Strawberry plants of the cultivar Chandler were maintained in a warm greenhouse under conditions suitable for optimum vegetative growth. The youngest fully expanded leaf with the entire petiole from each plant was collected. The petiole of each leaf was inserted into a small test tube (10×4 mm) and filled with sterile distilled water. The left leaflet of each leaf was inoculated with C. fragariae isolate CF-75 (1.5×10^6 conidia/ml) using a hand pump sprayer. The inoculated leaves were placed in a dew chamber and incubated overnight at 30° C. and 100% relative humidity, removed from the dew chamber and allowed to dry. The test compound was applied using a chromatography sprayer until the upper surface of each leaflet was coated. After allowing the leaves to air dry for 2 hours, the right leaflet of each leaf was inoculated with C. fragariae isolate CF-75. The leaves were incubated in the dew chamber at 30° C. and 100% relative humidity for 48 hours. The leaves were then removed from the dew chamber and held in a moist chamber for 3 days (total of five days since test compounds were applied). The number of lesions on each leaflet were then counted.

O=C1c2ccccc2-c2nccc3ccnc1c23 [Sampangine]
inhibition at 0.3 µM (C. acutatum; 48 hrs): 13.6 ± 5.8% | inhibition at 0.3 µM (C. acutatum; 72 hrs): 6 ± 5.1% | inhibition at 3 µM (C. acutatum; 48 hrs): 96.8 ± 0.5% | inhibition at 3 µM (C. acutatum; 72 hrs): -6.2 ± 3.8% | inhibition at 30 µM (C. acutatum; 48 hrs): 100 ± 0.6% | inhibition at 30 µM (C. acutatum; 72 hrs): 100 ± 0.2% | inhibition at 0.3 µM (C. gloeosporioides; 48 hrs): 63.8 ± 8.6% | inhibition at 0.3 µM (C. gloeosporioides; 72 hrs): 32.9 ± 8.3% | inhibition at 3 µM (C. gloeosporioides; 48 hrs): 98.3 ± 0.6% | inhibition at 3 µM (C. gloeosporioides; 72 hrs): 98.8 ± 0.4% | inhibition at 30 µM (C. gloeosporioides; 48 hrs): 99.2 ± 0.8% | inhibition at 30 µM (C. gloeosporioides; 72 hrs): 99.7 ± 0.4% | inhibition at 0.3 µM (F. oxysporum; 48 hrs): 14.7 ± 4.4% | inhibition at 0.3 µM (F. oxysporum; 72 hrs): 4.9 ± 2.3% | inhibition at 3 µM (F. oxysporum; 48 hrs): 86.6 ± 2.8% | inhibition at 3 µM (F. oxysporum; 72 hrs): 42.9 ± 3.1% | inhibition at 30 µM (F. oxysporum; 48 hrs): 100 ± 0.4% | inhibition at 30 µM (F. oxysporum; 72 hrs): 100 ± 0.4% | inhibition at 0.3 µM (C. fragariae; 48 hrs): 55.7 ± 4.5% | inhibition at 0.3 µM (C. fragariae; 72 hrs): 32.6 ± 5% | inhibition at 3 µM (C. fragariae; 48 hrs): 96.9 ± 0.8% | inhibition at 3 µM (C. fragariae; 72 hrs): 96.8 ± 0.4% | inhibition at 30 µM (C. fragariae; 48 hrs): 99.6 ± 0.9% | inhibition at 30 µM (C. fragariae; 72 hrs): 100 ± 0.4% | inhibition at 0.3 µM (B. cinerea; 48 hrs): 27.2 ± 18.6% | inhibition at 0.3 µM (B. cinerea; 72 hrs): 37 ± 21.8% | inhibition at 3 µM (B. cinerea; 48 hrs): 29.7 ± 24.8% | inhibition at 3 µM (B. cinerea; 72 hrs): 40.1 ± 20.6% | inhibition at 30 µM (B. cinerea; 48 hrs): 36.9 ± 26.7% | inhibition at 30 µM (B. cinerea; 72 hrs): 47.5 ± 27.1% | Disease severity scores (# disease lesions) ([1]; Concentration 625 (unit not given)): 8.31 | Disease severity scores (# disease lesions) ([1]; Concentration 1250 (unit not given)): 1.26 | Disease severity scores (# disease lesions) ([1]; Concentration 2500 (unit not given)): 0.80
